Several values for one entry are separate records, joined by “and”; a condition that tells them apart may be missing. Identical values can stand only once. Inconclusive results and toxic doses are left out.
Tested on: BDF1 mice, P388 leukemia ip, median survival T/C
Test: NCI In Vivo Anticancer Drug Screen. Data for tumor model P388 Leukemia (intraperitoneal) in B6D2F1 (BDF1) mice
Details: endpoint: median survival time, higher = longer survival
Procedure, shortened: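 T/C = treated-group survival ÷ vehicle-control survival; tumour transplanted into mice before dosing.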

[1] = dose: 25.0 mg/kg/injection, schedule: Q01DX009 (ip), vehicle: saline with Tween-80
[2] = dose: 50.0 mg/kg/injection, schedule: Q01DX009 (ip), vehicle: saline with Tween-80
[3] = dose: 50.0 mg/kg/injection, schedule: Q04DX003 (ip), vehicle: saline with Tween-80
[4] = dose: 100.0 mg/kg/injection, schedule: Q01DX009 (ip), vehicle: saline with Tween-80
[5] = dose: 100.0 mg/kg/injection, schedule: Q04DX003 (ip), vehicle: saline with Tween-80
[6] = dose: 200.0 mg/kg/injection, schedule: Q01DX009 (ip), vehicle: saline with Tween-80
[7] = dose: 400.0 mg/kg/injection, schedule: Q01DX009 (ip), vehicle: saline with Tween-80
[8] = dose: 12.5 mg/kg/injection, schedule: Q01DX009 (ip), vehicle: saline
[9] = dose: 25.0 mg/kg/injection, schedule: Q01DX009 (ip), vehicle: saline
[10] = dose: 100.0 mg/kg/injection, schedule: Q04DX003 (ip), vehicle: Klucel (hydroxypropylcellulose) (HPC)
[11] = dose: 200.0 mg/kg/injection, schedule: Q04DX003 (ip), vehicle: Klucel (hydroxypropylcellulose) (HPC)
[12] = dose: 50.0 mg/kg/injection, schedule: Q01DX009 (ip), vehicle: Klucel (hydroxypropylcellulose) (HPC)
[13] = dose: 6.25 mg/kg/injection, schedule: Q01DX009 (ip), vehicle: saline
[14] = dose: 12.5 mg/kg/injection, schedule: Q04DX003 (ip), vehicle: saline
[15] = dose: 100.0 mg/kg/injection, schedule: Q01DX009 (ip), vehicle: Klucel (hydroxypropylcellulose) (HPC)
[16] = dose: 200.0 mg/kg/injection, schedule: Q01DX009 (ip), vehicle: Klucel (hydroxypropylcellulose) (HPC)
[17] = dose: 400.0 mg/kg/injection, schedule: Q01DX009 (ip), vehicle: Klucel (hydroxypropylcellulose) (HPC)

CC(=O)NCc1ccc([N+](=O)[O-])cc1
T/C [1]: 103 % of control
T/C (dose: 25.0 mg/kg/injection, schedule: Q04DX003 (ip), vehicle: saline with Tween-80): 111 % of control
T/C [2]: 103 % of control
T/C [3]: 115 % of control
T/C [4]: 100 % of control
T/C [5]: 111 % of control
T/C [6]: 119 % of control
T/C (dose: 200.0 mg/kg/injection, schedule: Q04DX003 (ip), vehicle: saline with Tween-80): 109 % of control
T/C [7]: 95 % of control
T/C (dose: 400.0 mg/kg/injection, schedule: Q04DX003 (ip), vehicle: saline with Tween-80): 118 % of control

c1ccc(OCC2CO2)c(OCC2CO2)c1 (centres undefined)
T/C (dose: 60.0 mg/kg/injection, schedule: Q01DX005 (ip), vehicle: saline with Tween-80): 157 % of control
T/C (dose: 120.0 mg/kg/injection, schedule: Q01DX005 (ip), vehicle: saline with Tween-80): 185 % of control
T/C (dose: 240.0 mg/kg/injection, schedule: Q01DX005 (ip), vehicle: saline with Tween-80): 171 % of control

CCc1nc2nc(C)cc(C)n2n1
T/C [8]: 91 % of control
T/C [9]: 89 % of control
T/C (dose: 50.0 mg/kg/injection, schedule: Q01DX009 (ip), vehicle: saline): 97 % of control and 120 % of control
T/C (dose: 100.0 mg/kg/injection, schedule: Q01DX009 (ip), vehicle: saline): 86 % of control and 91 % of control
T/C (dose: 200.0 mg/kg/injection, schedule: Q01DX009 (ip), vehicle: saline): 104 % of control

Cc1[nH]c(N)nc(=S)c1CCC(=O)Nc1ccc(C(=O)NC(CCC(=O)O)C(=O)O)cc1 (centres undefined)
T/C [2]: 91 % of control
T/C [4]: 99 % of control
T/C [6]: 101 % of control
T/C [7]: 106 % of control

O=C(O)CC(SC(c1ccccc1)(c1ccccc1)c1ccccc1)C(=O)O (centres undefined)
T/C (dose: 50.0 mg/kg/injection, schedule: Q04DX003 (ip), vehicle: Klucel (hydroxypropylcellulose) (HPC)): 86 % of control
T/C [10]: 86 % of control
T/C [11]: 95 % of control

CCN1/C(=C/C(C)=C/c2sc3ccccc3[n+]2CC)Sc2ccccc21
T/C (dose: 25.0 micrograms/kg/injection, schedule: Q01DX009 (ip), vehicle: Klucel (hydroxypropylcellulose) (HPC)): 116 % of control
T/C (dose: 50.0 micrograms/kg/injection, schedule: Q01DX009 (ip), vehicle: Klucel (hydroxypropylcellulose) (HPC)): 109 % of control and 120 % of control
T/C (dose: 100.0 micrograms/kg/injection, schedule: Q01DX009 (ip), vehicle: Klucel (hydroxypropylcellulose) (HPC)): 106 % of control and 108 % of control
T/C (dose: 200.0 micrograms/kg/injection, schedule: Q01DX009 (ip), vehicle: Klucel (hydroxypropylcellulose) (HPC)): 97 % of control
T/C (dose: 400.0 micrograms/kg/injection, schedule: Q01DX009 (ip), vehicle: Klucel (hydroxypropylcellulose) (HPC)): 106 % of control

Cc1ccccc1NC(=O)Nc1ccccc1C
T/C (dose: 0.37 mg/kg/injection, schedule: Q01DX009 (ip), vehicle: Klucel (hydroxypropylcellulose) (HPC)): 88 % of control
T/C (dose: 0.75 mg/kg/injection, schedule: Q01DX009 (ip), vehicle: Klucel (hydroxypropylcellulose) (HPC)): 100 % of control
T/C (dose: 1.5 mg/kg/injection, schedule: Q01DX009 (ip), vehicle: Klucel (hydroxypropylcellulose) (HPC)): 107 % of control
T/C [10]: 104 % of control
T/C [11]: 95 % of control
T/C (dose: 400.0 mg/kg/injection, schedule: Q04DX003 (ip), vehicle: Klucel (hydroxypropylcellulose) (HPC)): 109 % of control

O=NN(CCCl)C(=O)Nc1cc2c3ccccc3ccc2c2ccccc12
T/C [12]: 121 % of control

CC(C)CC(CC(C)C)NCC(C)OC(=O)c1ccc([N+](=O)[O-])cc1 (centres undefined)
T/C (dose: 50.0 mg/kg/injection, schedule: Q01DX009 (ip), vehicle: water): 106 % of control
T/C (dose: 50.0 mg/kg/injection, schedule: Q04DX003 (ip), vehicle: water): 100 % of control
T/C (dose: 100.0 mg/kg/injection, schedule: Q01DX009 (ip), vehicle: water): 92 % of control
T/C (dose: 100.0 mg/kg/injection, schedule: Q04DX003 (ip), vehicle: water): 103 % of control
T/C (dose: 200.0 mg/kg/injection, schedule: Q01DX009 (ip), vehicle: water): 103 % of control
T/C (dose: 200.0 mg/kg/injection, schedule: Q04DX003 (ip), vehicle: water): 94 % of control
T/C (dose: 400.0 mg/kg/injection, schedule: Q04DX003 (ip), vehicle: water): 88 % of control

c1nc(SC2=NCCN2)c2[nH]cnc2n1
T/C (dose: 4.12 mg/kg/injection, schedule: Q01DX009 (ip), vehicle: saline): 118 % of control
T/C [13]: 150 % of control
T/C (dose: 9.37 mg/kg/injection, schedule: Q01DX009 (ip), vehicle: saline): 122 % of control
T/C [8]: 119 % of control
T/C [14]: 115 % of control
T/C (dose: 21.0 mg/kg/injection, schedule: Q01DX009 (ip), vehicle: saline): 100 % of control
T/C [9]: 123 % of control
T/C (dose: 25.0 mg/kg/injection, schedule: Q04DX003 (ip), vehicle: saline): 115 % of control
T/C (dose: 50.0 mg/kg/injection, schedule: Q04DX003 (ip), vehicle: saline): 123 % of control

C=C1C=C(C)CC(C)(C)C1 (tested in a mixture with another compound)
T/C (dose: 100.0 mg/kg/injection, schedule: Q01DX009 (ip), vehicle: saline sonified): 100 % of control
T/C (dose: 200.0 mg/kg/injection, schedule: Q01DX009 (ip), vehicle: saline sonified): 100 % of control
T/C (dose: 400.0 mg/kg/injection, schedule: Q01DX009 (ip), vehicle: saline sonified): 100 % of control

CC(=O)/C=C\c1ccc(Cl)cc1
T/C [12]: 100 % of control
T/C [15]: 111 % of control
T/C [16]: 109 % of control
T/C [17]: 111 % of control

c1ccc(CNc2ncnc3[nH]ncc23)cc1
T/C (dose: 8.0 mg/kg/injection, schedule: Q01DX010 (ip), vehicle: saline): 86 % of control and 115 % of control
T/C (dose: 16.0 mg/kg/injection, schedule: Q01DX010 (ip), vehicle: saline): 86 % of control and 100 % of control
T/C (dose: 32.0 mg/kg/injection, schedule: Q01DX010 (ip), vehicle: saline): 95 % of control and 100 % of control
T/C (dose: 64.0 mg/kg/injection, schedule: Q01DX010 (ip), vehicle: saline): 100 % of control

C[C@]12CC[C@H](OC(=O)Cc3ccc(N(CCCl)CCCl)cc3)CC1=CC[C@@H]1[C@@H]2CC[C@]2(C)C(=O)CC[C@@H]12
T/C (dose: 115.0 mg/kg/injection, schedule: Q04DX003 (ip), vehicle: saline with Tween-80): 113 % of control
T/C [6]: 215 % of control
T/C (dose: 400.0 mg/kg/injection, schedule: Q04DX003 (ip), vehicle: alcohol): 159 % of control
T/C (dose: 600.0 mg/kg/injection, schedule: Q04DX003 (ip), vehicle: alcohol): 272 % of control

O=P(NC1CCCC1)(N1CC1)N1CC1
T/C (dose: 1.56 mg/kg/injection, schedule: Q01DX009 (ip), vehicle: saline): 116 % of control
T/C [13]: 187 % of control and 220 % of control
T/C [8]: 91 % of control and 104 % of control

O=CC(C=O)[N+](=O)[O-]
T/C [15]: 91 % of control
T/C [16]: 95 % of control
T/C [17]: 108 % of control

CCCCC(CC)COC(=O)/C=C/C(=O)OCC(CC)CCCC (centres undefined)
T/C [15]: 86 % of control
T/C [16]: 86 % of control

C=CC=O
T/C (dose: 0.45 mg/kg/injection, schedule: Q01DX009 (ip), vehicle: saline): 100 % of control
T/C (dose: 0.45 mg/kg/injection, schedule: Q04DX003 (ip), vehicle: saline): 109 % of control
T/C (dose: 0.9 mg/kg/injection, schedule: Q01DX009 (ip), vehicle: saline): 108 % of control
T/C (dose: 0.9 mg/kg/injection, schedule: Q04DX003 (ip), vehicle: saline): 100 % of control
T/C (dose: 1.8 mg/kg/injection, schedule: Q01DX009 (ip), vehicle: saline): 112 % of control
T/C (dose: 1.8 mg/kg/injection, schedule: Q04DX003 (ip), vehicle: saline): 109 % of control
T/C [13]: 109 % of control
T/C (dose: 6.25 mg/kg/injection, schedule: Q04DX003 (ip), vehicle: saline): 104 % of control
T/C [14]: 100 % of control

c1ccc(C2OC3(CCCCC3)C[N+]23CCCC3)cc1 (centres undefined)
T/C [1]: 95 % of control
T/C [2]: 113 % of control
T/C [3]: 100 % of control
T/C [5]: 87 % of control

From PubChem BioAssay AID328 (DTP/NCI, 2004)
